Molecules are shown by their SMILES. Several values for one entry are separate records, joined by “and”; a condition that tells them apart may be missing. Equal values may be shown once. Toxic doses and inconclusive results are not listed.

This test concerns BDF1 mice, P388 leukemia ip, median survival T/C. Put plainly: NCI In Vivo Anticancer Drug Screen. Data for tumor model P388 Leukemia (intraperitoneal) in B6D2F1 (BDF1) mice. The following applies: endpoint: median survival time, higher = longer survival. In outline:
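Transplantable tumour in mice; compound vs vehicle dosing; survival scored; ratio of treated to control reported.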

[1] abbreviates: dose: 50.0 mg/kg/injection, schedule: Q01DX009 (ip), vehicle: saline.
Setting [2] is: dose: 200.0 mg/kg/injection, schedule: Q01DX009 (ip), vehicle: Klucel (hydroxypropylcellulose) (HPC).
The mark [3] stands for this setting: dose: 200.0 mg/kg/injection, schedule: Q04DX003 (ip), vehicle: saline.
The mark [4] stands for this setting: dose: 100.0 mg/kg/injection, schedule: Q04DX003 (ip), vehicle: saline with Tween-80.
The mark [5] stands for this setting: dose: 200.0 mg/kg/injection, schedule: Q04DX003 (ip), vehicle: saline with Tween-80.
[6] abbreviates: dose: 400.0 mg/kg/injection, schedule: Q04DX003 (ip), vehicle: saline with Tween-80.
Where [7] appears, read: dose: 200.0 mg/kg/injection, schedule: Q04DX003 (ip), vehicle: Klucel (hydroxypropylcellulose) (HPC).
[8] abbreviates: dose: 400.0 mg/kg/injection, schedule: Q04DX003 (ip), vehicle: Klucel (hydroxypropylcellulose) (HPC).
[9] abbreviates: dose: 100.0 mg/kg/injection, schedule: Q04DX003 (ip), vehicle: Klucel (hydroxypropylcellulose) (HPC).
Where [10] appears, read: dose: 50.0 mg/kg/injection, schedule: Q01DX009 (ip), vehicle: saline with Tween-80.
The mark [11] stands for this setting: dose: 100.0 mg/kg/injection, schedule: Q01DX009 (ip), vehicle: saline with Tween-80.
[12] abbreviates: dose: 200.0 mg/kg/injection, schedule: Q01DX009 (ip), vehicle: saline with Tween-80.

For `CC(=O)OC(C)(C)/C=C/C(=O)[C@](C)(O)[C@H]1[C@H](O)C[C@@]2(C)[C@@H]3CC=C4[C@@H](C[C@H](O)C(=O)C4(C)C)[C@]3(C)C(=O)C[C@]12C`, the T/C is 95 % of control (dose: 0.07 mg/kg/injection, schedule: Q01DX009 (ip), vehicle: saline); 100 % of control (dose: 0.09 mg/kg/injection, schedule: Q04DX003 (ip), vehicle: saline); 115 % of control (dose: 0.12 mg/kg/injection, schedule: Q01DX009 (ip), vehicle: saline); 105 % of control (dose: 0.18 mg/kg/injection, schedule: Q01DX009 (ip), vehicle: saline); 120 % of control (dose: 0.18 mg/kg/injection, schedule: Q01DX010 (ip), vehicle: carboxymethylcellulose (CMC)); 104 % of control (dose: 0.18 mg/kg/injection, schedule: Q04DX003 (ip), vehicle: saline). Also, the T/C is 113 % of control (dose: 0.25 mg/kg/injection, schedule: Q01DX010 (ip), vehicle: carboxymethylcellulose (CMC)); 100 % of control (dose: 0.37 mg/kg/injection, schedule: Q01DX010 (ip), vehicle: carboxymethylcellulose (CMC)); 118 % of control (dose: 0.5 mg/kg/injection, schedule: Q01DX010 (ip), vehicle: carboxymethylcellulose (CMC)); 115 % of control (dose: 0.75 mg/kg/injection, schedule: Q01DX010 (ip), vehicle: carboxymethylcellulose (CMC)); 115 % of control (dose: 1.5 mg/kg/injection, schedule: Q01DX010 (ip), vehicle: carboxymethylcellulose (CMC)); 112 % of control (dose: 132.0 micrograms/kg/injection, schedule: Q01DX009 (ip), vehicle: saline). Further, under “dose: 198.0 micrograms/kg/injection, schedule: Q01DX009 (ip), vehicle: saline”, the T/C was 104 % of control.

Take `CNC(=O)C(C)C1C(=O)/C(=C(O)/C=C/C(C)=C\C(C)C2OC3(C)OC(C=CC34CO4)C2C)C(=O)N1C1CCC(O)C(C)O1` (stereo unspecified): the T/C reads like this: under setting [1], 100 % of control; under setting [2], 109 % of control.

`CCOC(=O)C(=O)C[n+]1cc2ccccc2cc1/C=N/O`: the T/C runs as follows: (dose: 50.0 mg/kg/injection, schedule: Q01DX001 (ip), vehicle: saline) 100 % of control; (dose: 100.0 mg/kg/injection, schedule: Q01DX001 (ip), vehicle: saline) 100 % of control; (dose: 200.0 mg/kg/injection, schedule: Q01DX001 (ip), vehicle: saline) 100 % of control.

On to `c1cc(CC2CO2)c2c(c1CC1CO1)OCCOCCOCCOCCO2` (stereo unspecified), for which the T/C is 100 % of control (dose: 15.0 mg/kg/injection, schedule: Q01DX009 (ip), vehicle: saline + alcohol); 106 % of control (dose: 30.0 mg/kg/injection, schedule: Q01DX009 (ip), vehicle: saline + alcohol); 109 % of control (dose: 60.0 mg/kg/injection, schedule: Q01DX009 (ip), vehicle: saline + alcohol); 111 % of control (dose: 120.0 mg/kg/injection, schedule: Q01DX009 (ip), vehicle: saline + alcohol).

Regarding `Nc1ccc2c(-c3ccc([N+](=O)[O-])cc3)cc(=O)[nH]c2n1`, the T/C was 100 % of control under setting [3] and 97 % of control (dose: 400.0 mg/kg/injection, schedule: Q04DX003 (ip), vehicle: saline).

Turning to `O=C1C=C(c2ccccc2)C(c2ccccc2)C(c2ccccc2)C1` (stereo unspecified), the T/C by setting is: under setting [4], 100 % of control; under setting [5], 91 % of control; under setting [6], 86 % of control.

As for `CC1(C)N=C(N)N=C(N)N1c1ccc(CCCCc2cccc(S(=O)(=O)F)c2)c(Cl)c1`, the T/C (dose: 1.0 mg/kg/injection, schedule: Q01DX009 (ip), vehicle: saline with Tween-80) was 119 % of control; the T/C (dose: 1.32 mg/kg/injection, schedule: Q01DX009 (ip), vehicle: saline with Tween-80) was 150 % of control; the T/C (dose: 2.0 mg/kg/injection, schedule: Q01DX009 (ip), vehicle: saline with Tween-80) was 150 % of control; the T/C (dose: 3.0 mg/kg/injection, schedule: Q01DX009 (ip), vehicle: saline with Tween-80) was 154 % of control; the T/C (dose: 4.0 mg/kg/injection, schedule: Q01DX009 (ip), vehicle: saline with Tween-80) was 161 % of control; the T/C (dose: 8.0 mg/kg/injection, schedule: Q01DX009 (ip), vehicle: saline with Tween-80) was 161 % of control and 170 % of control. The T/C (dose: 12.0 mg/kg/injection, schedule: Q01DX009 (ip), vehicle: saline with Tween-80) was 170 % of control; the T/C (dose: 12.5 mg/kg/injection, schedule: Q04DX003 (ip), vehicle: saline with Tween-80) is 109 % of control; the T/C (dose: 18.0 mg/kg/injection, schedule: Q01DX009 (ip), vehicle: saline with Tween-80) is 200 % of control.

With `CCOC(=O)C(Cc1ccc(N(CCCl)CCCl)cc1)NC=O` (stereo unspecified), the T/C is 181 % of control (dose: 66.0 mg/kg/injection, schedule: Q04DX003 (ip), vehicle: saline with Tween-80); 200 % of control and 209 % of control under setting [4]; 268 % of control and 272 % of control (dose: 150.0 mg/kg/injection, schedule: Q04DX003 (ip), vehicle: saline with Tween-80); 110 % of control (dose: 375.0 micrograms/kg/injection, schedule: Q04DX003 (ip), vehicle: saline with Tween-80); 120 % of control (dose: 750.0 micrograms/kg/injection, schedule: Q04DX003 (ip), vehicle: saline with Tween-80).

Take `C/C(=N\Nc1nc2ccccc2o1)c1ccncc1`: the T/C by setting is: under setting [7], 104 % of control; under setting [8], 86 % of control.

With `COc1ccccc1C(=O)C(O)c1ccccc1OC` (stereo unspecified), the T/C under setting [9] was 95 % of control, the T/C under setting [7] was 104 % of control and the T/C under setting [8] was 108 % of control.

`Oc1ccc(C2N(c3ccccc3)CCN2c2ccccc2)cc1`: the T/C runs as follows: under setting [4], 110 % of control; under setting [5], 86 % of control.

As for `O=Cc1cn[nH]c1-c1ccccc1`, the T/C by setting is: (dose: 100.0 mg/kg/injection, schedule: Q01DX009 (ip), vehicle: Klucel (hydroxypropylcellulose) (HPC)) 92 % of control; under setting [9], 87 % of control; under setting [2], 88 % of control; under setting [7], 87 % of control.

In the case of `O=C(c1ccccn1)C12CC3CC(CC(C3)C1)C2`, the T/C is, setting by setting: under setting [4], 95 % of control; under setting [5], 105 % of control; under setting [6], 95 % of control.

On to `COc1cc2c(cc1OC)/C(=N\O)CCCC2`, for which the T/C under setting [10] was 119 % of control; the T/C under setting [11] is 114 % of control; the T/C under setting [9] was 100 % of control; the T/C under setting [12] is 90 % of control; the T/C under setting [7] was 100 % of control; the T/C under setting [8] is 100 % of control.

In the case of `Cc1cc([N+](=O)[O-])c2ccccc2c1N(CC(=O)O)S(=O)(=O)c1ccccc1`, the T/C reads like this: under setting [11], 100 % of control; under setting [4], 100 % of control; under setting [12], 112 % of control; under setting [5], 100 % of control; (dose: 400.0 mg/kg/injection, schedule: Q01DX009 (ip), vehicle: saline with Tween-80) 120 % of control; under setting [6], 121 % of control.

For `CCCCCCCCCCCCCCSCCSCCSCCCCCCCCCCCCCC`, the T/C was 86 % of control (dose: 25.0 mg/kg/injection, schedule: Q01DX001 (ip), vehicle: saline sonified) and 86 % of control (dose: 100.0 mg/kg/injection, schedule: Q01DX001 (ip), vehicle: saline sonified).

For `CCOC(=O)c1c(N)ssc1=S`, the T/C (dose: 6.25 mg/kg/injection, schedule: Q01DX009 (ip), vehicle: saline) is 101 % of control; the T/C (dose: 12.5 mg/kg/injection, schedule: Q01DX009 (ip), vehicle: saline) is 113 % of control; the T/C (dose: 25.0 mg/kg/injection, schedule: Q01DX009 (ip), vehicle: saline) is 100 % of control; the T/C under setting [1] is 111 % of control; the T/C (dose: 100.0 mg/kg/injection, schedule: Q01DX009 (ip), vehicle: saline) is 113 % of control; the T/C (dose: 100.0 mg/kg/injection, schedule: Q04DX003 (ip), vehicle: saline) is 112 % of control. The T/C was 93 % of control and 104 % of control (dose: 200.0 mg/kg/injection, schedule: Q01DX009 (ip), vehicle: saline); 86 % of control under setting [3]; 91 % of control (dose: 300.0 mg/kg/injection, schedule: Q01DX009 (ip), vehicle: saline).

As for `CCCCOn1nnc2cc(Cl)ccc21`, the T/C is 97 % of control under setting [10], 101 % of control under setting [11] and 117 % of control under setting [12].
